Source: ChEMBL document CHEMBL3867472, “Discovery of benzofuran propanoic acid GPR120 agonists: From uHTS hit to mechanism-based pharmacodynamic effects” (Bioorg Med Chem Lett, 2016)
Activity calls are given as the source filed them. No cut-off for these calls is given here.

Molecular target: T1, Free fatty acid receptor 4 (Homo sapiens) (UniProt Q5NUL3)
T1 sequence (whole entry): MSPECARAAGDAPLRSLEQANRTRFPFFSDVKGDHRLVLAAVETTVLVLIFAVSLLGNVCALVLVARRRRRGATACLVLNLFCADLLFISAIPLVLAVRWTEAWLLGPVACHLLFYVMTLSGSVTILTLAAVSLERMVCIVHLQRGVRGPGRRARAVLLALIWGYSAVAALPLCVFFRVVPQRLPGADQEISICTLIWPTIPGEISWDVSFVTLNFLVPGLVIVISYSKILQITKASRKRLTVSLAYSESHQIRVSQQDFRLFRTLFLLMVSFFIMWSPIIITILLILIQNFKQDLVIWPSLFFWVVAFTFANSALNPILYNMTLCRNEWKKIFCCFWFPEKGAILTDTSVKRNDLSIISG
Experiment: Agonist activity at human GPR120 expressed in CHO-NFAT cells assessed as increase in calcium efflux at 5 uM by Fluo-4 dye-based FLIPR assay
Type: functional, cell-based
Settings: not given

Row | Compound | Activity
1 | O=C(O)CCCOc1ccc(-c2noc3ccccc23)c(Cl)c1Cl | > 11%

Test system: CHO-K1
Experiment: Effect on calcium efflux in CHOK1 cells at 5 uM by Fluo-4 dye-based FLIPR assay
Type: functional, Cricetulus griseus
Settings: not given

Row | Compound | Activity
2 | O=C(O)CCCOc1ccc(-c2noc3ccccc23)c(Cl)c1Cl | <10%

Molecular target: T1, Free fatty acid receptor 4 (Homo sapiens)
Experiment: Agonist activity at GPR120 (unknown origin) at 5 uM by PathHunter cell based assay
Settings: not given

Row | Compound | Activity
3 | O=C(O)CCCOc1ccc(-c2noc3ccccc23)c(Cl)c1Cl | Active

Molecular target: T2, Free fatty acid receptor 4 (Homo sapiens, UniProt Q5NUL3)
T2 sequence (Q5NUL3 whole entry): T1 sequence (whole entry)
Experiment: Agonist activity at human GPR120 expressed in CHOK1 cells measured after 60 mins by IP1-HTRF assay
Type: functional, cell-based, CHO-K1
Settings: not given

Row | Compound | EC50
4 | O=C(O)CCCOc1c(F)cc(-c2cc(OC(F)(F)F)ccc2F)cc1F | 20 nM
5 | Cc1cc(-c2cc(OC(F)(F)F)ccc2Cl)cc(C)c1OCCCC(=O)O | 94 nM
6 | O=C(O)CCCOc1ccc(-c2cc(Oc3cccc(F)c3)ccc2F)cc1 | 60 nM
7 | Cc1cc(OC2CCC2)cc(-c2ccc3oc(CCC(=O)O)cc3c2)c1 | 68 nM
8 | O=C(O)CCCOc1ccc(-c2cc(Oc3cccc(F)c3)ccc2Cl)cc1 | 198 nM
9 | O=C(O)CCCOc1ccc(-c2cc(Oc3ccccc3)ccc2F)cc1 | 100 nM
10 | O=C(O)CCCOc1ccc(-c2noc3ccccc23)c(Cl)c1Cl | 474 nM
11 | CCOc1ccc(F)c(-c2ccc(OCCCC(=O)O)cc2)c1 | 290 nM

Molecular target: T1, Free fatty acid receptor 4 (Homo sapiens)
Experiment: Agonist activity at human GPR120 expressed in CHOK1 cells measured after 60 mins by IP1-HTRF assay relative to basal level
Type: functional, cell-based
Parameters: concentration or dose not given beside the values
Settings: CHO-K1

Row | Compound | Activity
12 | O=C(O)CCCOc1c(F)cc(-c2cc(OC(F)(F)F)ccc2F)cc1F | 69%
13 | Cc1cc(-c2cc(OC(F)(F)F)ccc2Cl)cc(C)c1OCCCC(=O)O | 61%
14 | O=C(O)CCCOc1ccc(-c2cc(Oc3cccc(F)c3)ccc2F)cc1 | 107%
15 | Cc1cc(OC2CCC2)cc(-c2ccc3oc(CCC(=O)O)cc3c2)c1 | 51%
16 | O=C(O)CCCOc1ccc(-c2cc(Oc3cccc(F)c3)ccc2Cl)cc1 | 80%
17 | O=C(O)CCCOc1ccc(-c2cc(Oc3ccccc3)ccc2F)cc1 | 71%
18 | O=C(O)CCCOc1ccc(-c2noc3ccccc23)c(Cl)c1Cl | 24%
19 | CCOc1ccc(F)c(-c2ccc(OCCCC(=O)O)cc2)c1 | 71%

Molecular target: T3, Free fatty acid receptor 4 (Mus musculus, UniProt Q7TMA4)
T3 sequence (Q7TMA4 whole entry): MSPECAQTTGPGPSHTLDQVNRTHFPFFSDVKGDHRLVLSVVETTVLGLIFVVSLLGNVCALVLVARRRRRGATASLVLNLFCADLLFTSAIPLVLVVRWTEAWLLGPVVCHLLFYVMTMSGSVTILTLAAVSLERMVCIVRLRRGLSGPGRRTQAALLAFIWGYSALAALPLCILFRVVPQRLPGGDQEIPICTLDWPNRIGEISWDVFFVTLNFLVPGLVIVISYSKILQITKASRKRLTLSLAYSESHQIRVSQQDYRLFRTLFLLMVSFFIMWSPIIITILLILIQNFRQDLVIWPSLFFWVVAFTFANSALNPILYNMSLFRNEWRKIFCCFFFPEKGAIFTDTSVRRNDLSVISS
Experiment: Agonist activity at mouse GPR120 expressed in CHOK1 cells measured after 60 mins by IP1-HTRF assay
Type: functional, cell-based, CHO-K1
Settings: not given

Row | Compound | EC50
20 | O=C(O)CCCOc1c(F)cc(-c2cc(OC(F)(F)F)ccc2F)cc1F | 7 nM
21 | Cc1cc(-c2cc(OC(F)(F)F)ccc2Cl)cc(C)c1OCCCC(=O)O | 16 nM
22 | O=C(O)CCCOc1ccc(-c2cc(Oc3cccc(F)c3)ccc2F)cc1 | 27 nM
23 | Cc1cc(OC2CCC2)cc(-c2ccc3oc(CCC(=O)O)cc3c2)c1 | 28 nM
24 | O=C(O)CCCOc1ccc(-c2cc(Oc3cccc(F)c3)ccc2Cl)cc1 | 34 nM
25 | O=C(O)CCCOc1ccc(-c2cc(Oc3ccccc3)ccc2F)cc1 | 29 nM
26 | O=C(O)CCCOc1ccc(-c2noc3ccccc23)c(Cl)c1Cl | 487 nM
27 | CCOc1ccc(F)c(-c2ccc(OCCCC(=O)O)cc2)c1 | 140 nM

Molecular target: T4, Free fatty acid receptor 4 (Mus musculus) (UniProt Q7TMA4)
T4 sequence (whole entry): T3 sequence (Q7TMA4 whole entry)
Experiment: Agonist activity at mouse GPR120 expressed in CHOK1 cells measured after 60 mins by IP1-HTRF assay relative to basal level
Type: functional, cell-based
Parameters: concentration or dose not given beside the values
Settings: CHO-K1

Row | Compound | Activity
28 | O=C(O)CCCOc1c(F)cc(-c2cc(OC(F)(F)F)ccc2F)cc1F | 75%
29 | Cc1cc(-c2cc(OC(F)(F)F)ccc2Cl)cc(C)c1OCCCC(=O)O | 73%
30 | O=C(O)CCCOc1ccc(-c2cc(Oc3cccc(F)c3)ccc2F)cc1 | 98%
31 | Cc1cc(OC2CCC2)cc(-c2ccc3oc(CCC(=O)O)cc3c2)c1 | 69%
32 | O=C(O)CCCOc1ccc(-c2cc(Oc3cccc(F)c3)ccc2Cl)cc1 | 70%
33 | O=C(O)CCCOc1ccc(-c2cc(Oc3ccccc3)ccc2F)cc1 | 80%
34 | O=C(O)CCCOc1ccc(-c2noc3ccccc23)c(Cl)c1Cl | 29%
35 | CCOc1ccc(F)c(-c2ccc(OCCCC(=O)O)cc2)c1 | 58%

Molecular target: T5, Free fatty acid receptor 1 (Homo sapiens, UniProt O14842)
Experiment: Agonist activity at human GPR40 measured after 60 mins by IP1-HTRF assay
Type: functional
Settings: not given

T5 sequence (O14842 whole entry): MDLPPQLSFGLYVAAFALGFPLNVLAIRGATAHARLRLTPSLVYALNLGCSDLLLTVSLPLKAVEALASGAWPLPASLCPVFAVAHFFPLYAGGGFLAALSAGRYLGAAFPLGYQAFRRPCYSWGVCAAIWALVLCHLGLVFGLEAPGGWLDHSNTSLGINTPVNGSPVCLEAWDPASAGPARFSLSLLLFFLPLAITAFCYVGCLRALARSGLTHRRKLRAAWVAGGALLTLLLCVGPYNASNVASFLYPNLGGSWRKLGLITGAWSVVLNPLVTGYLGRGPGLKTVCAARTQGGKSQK

Row | Compound | EC50
36 | O=C(O)CCCOc1c(F)cc(-c2cc(OC(F)(F)F)ccc2F)cc1F | 5410 nM
37 | Cc1cc(-c2cc(OC(F)(F)F)ccc2Cl)cc(C)c1OCCCC(=O)O | > 9950 nM
38 | O=C(O)CCCOc1ccc(-c2cc(Oc3cccc(F)c3)ccc2F)cc1 | 9460 nM
39 | Cc1cc(OC2CCC2)cc(-c2ccc3oc(CCC(=O)O)cc3c2)c1 | 2960 nM
40 | O=C(O)CCCOc1ccc(-c2cc(Oc3cccc(F)c3)ccc2Cl)cc1 | 3350 nM
41 | O=C(O)CCCOc1ccc(-c2cc(Oc3ccccc3)ccc2F)cc1 | 3590 nM
42 | O=C(O)CCCOc1ccc(-c2noc3ccccc23)c(Cl)c1Cl | > 9950 nM
43 | CCOc1ccc(F)c(-c2ccc(OCCCC(=O)O)cc2)c1 | 3190 nM

Molecular target: T5, Free fatty acid receptor 1
Experiment: Agonist activity at human GPR40 measured after 60 mins by IP1-HTRF assay relative to basal level
Type: functional
Parameters: concentration or dose not given beside the values
Settings: not given

Row | Compound | Activity
44 | O=C(O)CCCOc1c(F)cc(-c2cc(OC(F)(F)F)ccc2F)cc1F | 46%
45 | O=C(O)CCCOc1ccc(-c2cc(Oc3cccc(F)c3)ccc2F)cc1 | 110%
46 | Cc1cc(OC2CCC2)cc(-c2ccc3oc(CCC(=O)O)cc3c2)c1 | 51%
47 | O=C(O)CCCOc1ccc(-c2cc(Oc3cccc(F)c3)ccc2Cl)cc1 | 67%
48 | O=C(O)CCCOc1ccc(-c2cc(Oc3ccccc3)ccc2F)cc1 | 91%
49 | CCOc1ccc(F)c(-c2ccc(OCCCC(=O)O)cc2)c1 | 22%

Molecular target: Voltage-dependent L-type calcium channel subunit alpha-1C (Homo sapiens, UniProt Q13936)
Experiment: Inhibition of Cav1.2 (unknown origin)
Settings: not given

Row | Compound | IC50
50 | Cc1cc(-c2cc(OC(F)(F)F)ccc2Cl)cc(C)c1OCCCC(=O)O | 12800 nM

Molecular target: Sodium channel protein type 5 subunit alpha (Homo sapiens, UniProt Q14524)
Experiment: Inhibition of Nav1.5 (unknown origin)
Settings: not given

Chain of Sodium channel protein type 5 subunit alpha (Q14524 whole entry): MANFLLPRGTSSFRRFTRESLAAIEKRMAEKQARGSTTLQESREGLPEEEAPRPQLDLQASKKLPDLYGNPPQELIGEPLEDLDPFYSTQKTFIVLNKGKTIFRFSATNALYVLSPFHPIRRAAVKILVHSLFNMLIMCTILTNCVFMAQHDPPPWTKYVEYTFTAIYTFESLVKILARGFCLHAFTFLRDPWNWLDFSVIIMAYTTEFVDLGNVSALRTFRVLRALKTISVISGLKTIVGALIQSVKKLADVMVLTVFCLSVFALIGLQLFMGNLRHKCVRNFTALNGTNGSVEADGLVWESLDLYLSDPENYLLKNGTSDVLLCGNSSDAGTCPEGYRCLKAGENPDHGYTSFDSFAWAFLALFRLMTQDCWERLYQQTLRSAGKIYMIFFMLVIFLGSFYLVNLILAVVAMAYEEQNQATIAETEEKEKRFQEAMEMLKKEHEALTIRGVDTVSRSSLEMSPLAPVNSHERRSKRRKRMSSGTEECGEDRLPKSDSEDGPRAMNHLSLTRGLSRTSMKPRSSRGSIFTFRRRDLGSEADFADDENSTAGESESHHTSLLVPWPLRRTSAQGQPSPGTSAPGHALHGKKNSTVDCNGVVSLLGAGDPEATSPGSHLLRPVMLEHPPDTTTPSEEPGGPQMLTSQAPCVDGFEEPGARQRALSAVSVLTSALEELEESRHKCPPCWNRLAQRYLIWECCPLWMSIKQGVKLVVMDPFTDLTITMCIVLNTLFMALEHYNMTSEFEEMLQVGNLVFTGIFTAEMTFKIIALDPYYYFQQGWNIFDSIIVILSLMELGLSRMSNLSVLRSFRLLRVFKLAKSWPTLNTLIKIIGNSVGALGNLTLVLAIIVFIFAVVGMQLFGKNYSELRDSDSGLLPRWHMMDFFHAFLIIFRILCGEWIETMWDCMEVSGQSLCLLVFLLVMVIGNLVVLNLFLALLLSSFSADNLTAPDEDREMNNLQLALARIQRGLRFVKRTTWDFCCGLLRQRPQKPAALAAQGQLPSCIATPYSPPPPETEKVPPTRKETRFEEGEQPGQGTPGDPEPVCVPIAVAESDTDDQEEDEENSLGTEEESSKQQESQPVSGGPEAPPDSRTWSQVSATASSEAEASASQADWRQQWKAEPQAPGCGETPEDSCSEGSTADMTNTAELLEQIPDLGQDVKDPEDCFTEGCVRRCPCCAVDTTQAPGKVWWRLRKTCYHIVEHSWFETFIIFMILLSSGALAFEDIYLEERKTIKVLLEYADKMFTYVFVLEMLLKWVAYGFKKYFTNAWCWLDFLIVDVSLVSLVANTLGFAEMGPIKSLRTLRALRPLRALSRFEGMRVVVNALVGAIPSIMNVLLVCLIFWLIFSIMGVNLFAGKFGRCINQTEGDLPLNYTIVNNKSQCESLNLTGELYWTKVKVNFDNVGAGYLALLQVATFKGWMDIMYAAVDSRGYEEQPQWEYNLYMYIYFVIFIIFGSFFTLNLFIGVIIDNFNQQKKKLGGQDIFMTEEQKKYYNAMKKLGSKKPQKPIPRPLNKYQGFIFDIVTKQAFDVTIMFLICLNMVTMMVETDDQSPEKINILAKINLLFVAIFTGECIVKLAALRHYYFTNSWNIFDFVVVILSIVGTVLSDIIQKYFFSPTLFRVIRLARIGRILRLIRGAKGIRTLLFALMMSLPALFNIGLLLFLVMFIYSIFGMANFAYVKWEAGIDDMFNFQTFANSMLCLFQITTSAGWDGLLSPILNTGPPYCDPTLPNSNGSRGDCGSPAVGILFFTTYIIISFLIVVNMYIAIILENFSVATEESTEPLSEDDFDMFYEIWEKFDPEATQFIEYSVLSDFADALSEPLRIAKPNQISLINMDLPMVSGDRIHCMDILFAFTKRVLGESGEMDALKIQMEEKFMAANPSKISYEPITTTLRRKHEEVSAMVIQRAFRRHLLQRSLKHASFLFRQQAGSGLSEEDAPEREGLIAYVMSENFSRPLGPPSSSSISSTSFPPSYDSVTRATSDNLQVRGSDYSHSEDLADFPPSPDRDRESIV

Row | Compound | IC50
51 | Cc1cc(-c2cc(OC(F)(F)F)ccc2Cl)cc(C)c1OCCCC(=O)O | 9130 nM

Molecular target: Cytochrome P450 3A4 (Homo sapiens, UniProt P08684)
Experiment: Inhibition of CYP3A4 (unknown origin)
Type: ADME
Settings: not given

Chain of Cytochrome P450 3A4 (P08684 whole entry): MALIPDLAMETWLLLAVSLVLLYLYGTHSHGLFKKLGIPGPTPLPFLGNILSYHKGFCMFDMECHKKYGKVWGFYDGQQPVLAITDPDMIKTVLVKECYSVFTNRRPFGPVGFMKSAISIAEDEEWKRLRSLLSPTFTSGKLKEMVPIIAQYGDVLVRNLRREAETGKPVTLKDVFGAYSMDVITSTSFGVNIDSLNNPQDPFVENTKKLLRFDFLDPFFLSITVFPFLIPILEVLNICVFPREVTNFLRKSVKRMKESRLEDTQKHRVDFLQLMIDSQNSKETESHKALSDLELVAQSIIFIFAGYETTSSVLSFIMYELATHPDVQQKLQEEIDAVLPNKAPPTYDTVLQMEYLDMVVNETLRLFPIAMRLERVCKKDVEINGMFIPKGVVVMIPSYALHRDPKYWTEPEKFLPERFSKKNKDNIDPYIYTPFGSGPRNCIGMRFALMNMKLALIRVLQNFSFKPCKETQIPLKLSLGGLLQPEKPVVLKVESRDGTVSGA

Row | Compound | IC50
52 | Cc1cc(-c2cc(OC(F)(F)F)ccc2Cl)cc(C)c1OCCCC(=O)O | 3280 nM

Molecular target: Cytochrome P450 2D6 (Homo sapiens, UniProt P10635)
Experiment: Inhibition of CYP2D6 (unknown origin)
Type: ADME
Settings: not given

Chain of Cytochrome P450 2D6 (P10635 whole entry): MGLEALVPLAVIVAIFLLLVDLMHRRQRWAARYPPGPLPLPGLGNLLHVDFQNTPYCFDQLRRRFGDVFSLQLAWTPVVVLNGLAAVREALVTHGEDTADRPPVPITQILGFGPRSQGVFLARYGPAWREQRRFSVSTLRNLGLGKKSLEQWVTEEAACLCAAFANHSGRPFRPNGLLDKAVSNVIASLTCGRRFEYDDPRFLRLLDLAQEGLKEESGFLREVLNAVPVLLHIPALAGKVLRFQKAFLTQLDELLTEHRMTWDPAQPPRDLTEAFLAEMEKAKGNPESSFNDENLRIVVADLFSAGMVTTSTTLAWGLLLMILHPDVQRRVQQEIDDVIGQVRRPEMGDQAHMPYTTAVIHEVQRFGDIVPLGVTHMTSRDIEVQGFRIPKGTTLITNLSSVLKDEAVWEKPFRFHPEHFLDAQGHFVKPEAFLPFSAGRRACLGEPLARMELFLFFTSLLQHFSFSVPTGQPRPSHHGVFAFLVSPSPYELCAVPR

Row | Compound | IC50
53 | Cc1cc(-c2cc(OC(F)(F)F)ccc2Cl)cc(C)c1OCCCC(=O)O | > 50000 nM

Molecular target: Cytochrome P450 2C9 (Homo sapiens, UniProt P11712)
Experiment: Inhibition of CYP2C9 (unknown origin)
Type: ADME
Settings: not given

Chain of Cytochrome P450 2C9 (P11712 whole entry): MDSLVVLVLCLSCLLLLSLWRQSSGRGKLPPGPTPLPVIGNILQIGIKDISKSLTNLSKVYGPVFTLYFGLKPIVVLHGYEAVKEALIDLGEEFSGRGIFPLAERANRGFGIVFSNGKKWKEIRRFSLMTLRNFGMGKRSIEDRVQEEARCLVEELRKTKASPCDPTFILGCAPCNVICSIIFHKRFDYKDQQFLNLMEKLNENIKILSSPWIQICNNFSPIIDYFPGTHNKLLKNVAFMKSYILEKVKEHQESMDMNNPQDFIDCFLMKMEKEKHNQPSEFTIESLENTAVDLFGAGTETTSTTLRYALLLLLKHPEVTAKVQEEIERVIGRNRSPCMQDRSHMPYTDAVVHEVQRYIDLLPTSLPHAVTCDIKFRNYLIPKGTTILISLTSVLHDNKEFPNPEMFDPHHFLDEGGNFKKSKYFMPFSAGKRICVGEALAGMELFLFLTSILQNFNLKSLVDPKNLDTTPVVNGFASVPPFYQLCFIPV

Row | Compound | IC50
54 | Cc1cc(-c2cc(OC(F)(F)F)ccc2Cl)cc(C)c1OCCCC(=O)O | > 50000 nM

Test system: not listed separately
Experiment: Clearance in mouse at 2 mg/kg, iv or 10 mg/kg, po
Type: ADME, organism-based
Settings: in vivo

Row | Compound | clearance
55 | Cc1cc(-c2cc(OC(F)(F)F)ccc2Cl)cc(C)c1OCCCC(=O)O | 4.9 mL/min/kg
56 | O=C(O)CCCOc1ccc(-c2noc3ccccc23)c(Cl)c1Cl | 24 mL/min/kg

Test system: not listed separately
Experiment: Volume of distribution in mouse at 2 mg/kg, iv or 10 mg/kg, po
Type: ADME, organism-based
Settings: in vivo

Row | Compound | Vd
57 | Cc1cc(-c2cc(OC(F)(F)F)ccc2Cl)cc(C)c1OCCCC(=O)O | 0.95 L/kg
58 | O=C(O)CCCOc1ccc(-c2noc3ccccc23)c(Cl)c1Cl | 5.6 L/kg

Test system: not listed separately
Experiment: Half life in mouse at 2 mg/kg, iv or 10 mg/kg, po
Type: ADME, organism-based
Settings: in vivo

Row | Compound | half-life
59 | Cc1cc(-c2cc(OC(F)(F)F)ccc2Cl)cc(C)c1OCCCC(=O)O | 5.5 h
60 | O=C(O)CCCOc1ccc(-c2noc3ccccc23)c(Cl)c1Cl | 3.3 h

Test system: not listed separately
Experiment: Oral bioavailability in mouse at 10 mg/kg
Type: ADME, organism-based
Settings: in vivo

Row | Compound | bioavailability
61 | Cc1cc(-c2cc(OC(F)(F)F)ccc2Cl)cc(C)c1OCCCC(=O)O | 41%
62 | O=C(O)CCCOc1ccc(-c2noc3ccccc23)c(Cl)c1Cl | 97%

Test system: not listed separately
Experiment: Cmax in mouse at 2 mg/kg, iv or 10 mg/kg, po
Type: ADME, organism-based
Settings: in vivo

Row | Compound | Cmax
63 | Cc1cc(-c2cc(OC(F)(F)F)ccc2Cl)cc(C)c1OCCCC(=O)O | 6.1 µM
64 | O=C(O)CCCOc1ccc(-c2noc3ccccc23)c(Cl)c1Cl | 4.64 µM

Test system: not listed separately
Experiment: Protein binding in mouse plasma
Type: ADME, cell-free
Settings: read-out: PPB (converted)

Row | Compound | fraction unbound
65 | Cc1cc(-c2cc(OC(F)(F)F)ccc2Cl)cc(C)c1OCCCC(=O)O | 0.002
66 | O=C(O)CCCOc1ccc(-c2noc3ccccc23)c(Cl)c1Cl | 0.042
